{"source": "paper PMC9603750", "about": "“Chalcone-Acridine Hybrid Suppresses Melanoma Cell Progression via G2/M Cell Cycle Arrest, DNA Damage, Apoptosis, and Modulation of MAP Kinases Activity” (International Journal of Molecular Sciences, 2022)", "format_in_all_cases": "cell-based, human", "key": {"[1]": {"test_system": "A2058 melanoma cells", "test": "Flow cytometric analysis of cytochrome c release", "settings": "A2058, 1C 10 μmol/L, 24, 48 and 72 h", "description": "(§1) The A2058 and BLM melanoma cells were seeded 1 × 10^6 in Petri dishes with complete growth medium and cultivated for 24 h. After cell cultivation, the A2058 cells were treated with chalcone 1C at 10 μmol/L concentration, BLM cells at 20 μmol/L concentration and both melanoma cell lines were treated with DMSO as the negative control at the same concentrations for 24, 48 and 72 h. Adherent and floating cells were harvested, pelleted by centrifugation at 1200 rpm for 5 min. Pellets were resuspended in washing buffer (PBS) and divided for a particular analysis. Afterwards, cells were prepared according to assay kit protocols or fixed with cold 4% paraformaldehyde (15 min) and permeabilized with 90% methanol (10 min on ice) with washing steps (PBS) and stained prior to analysis (Table 5) for 15 min in the dark at room temperature. Fluorescence was detected using a BD FACSCalibur^TM Flow Cytometer (Becton Dickinson, San Jose, CA, USA)."}, "[2]": {"test_system": "BLM melanoma cells", "test": "Flow cytometric analysis of cytochrome c release", "settings": "1C 20 μmol/L, 24, 48 and 72 h", "description": "as §1"}, "[3]": {"test_system": "A2058 melanoma cells", "test": "Apoptosis detection, Annexin V/PI staining", "settings": "A2058, 1C 10 μmol/L", "text": "(§2) Phosphatidylserine (PS) is an anionic phospholipid located on the cytoplasmic surface of the plasma membrane in cells with intact membranes. The externalization of PS from the inner to outer surface of the lipid bilayer of plasma membrane is a typical marker of apoptosis in the early stages. Annexin V/PI double staining is a method for dividing cells into populations of living (An^−/PI^− Q3), early apoptotic (An^+/PI^− Q4), late apoptotic/necrotic (An^+/PI^+ Q2) and dead (An^−/PI^+ Q1). […] Furthermore, the concomitant decrease of living cells and the increased number of dead cells were also observed in a time-dependent pattern (Table 4, Figure 4).\n(§3) To perform apoptosis detection, A2058 and BLM melanoma cells were seeded in Petri dishes at a density of 1 × 10^5/dish and treated with chalcone 1C and DMSO as the negative control at the same concentrations for 24, 48 and 72 h. In the next step, adherent and floating melanoma cells were harvested, centrifuged and pellets were resuspended in washing buffer (PBS). Resuspended melanoma cells were stained with Annexin V-Alexa Fluor® 647 antibody (Thermo Scientific, Rockford, IL, USA) in binding buffer for 20 min in the dark at room temperature. Finally, melanoma cells were washed, stained with 1 μL of propidium iodide (final concentration 25 μg/mL) for 5 min and analysed using a BD FACSCalibur^TM Flow Cytometer (Becton Dickinson, San Jose, CA, USA). Three independent analyses were performed."}, "[4]": {"test_system": "BLM melanoma cells", "test": "Apoptosis detection, Annexin V/PI staining", "settings": "1C 20 μmol/L", "text": "as §2, §3"}, "[5]": {"test_system": "BLM", "test": "MTT assay (metabolic activity)", "description": "(§4) Cell lines A2058 (human melanoma lymph node metastasis, cat. 91100402) from ECACC (Public Health England, Salisbury, UK) and BLM (human melanoma lung metastasis a gift from prof. K. Smetana, Institute of Anatomy, Charles University in Prague) were cultured in a medium consisting of high glucose Dulbecco’s Modified Eagle’s Medium (DMEM) and sodium pyruvate (GE Healthcare, Piscataway, NJ, USA). The growth medium was supplemented with a 10% fetal bovine serum (FBS) and antibiotic/antimycotic solution 1 × HyClone™ (GE Healthcare, Chicago, IL, USA). The MCF-10A (human mammary epithelial cells) cell line was cultured in a medium consisting of high glucose Dulbecco’s Modified Eagle’s Medium F12 (DMEM/F12) (Biosera, Kansas City, MO, USA). The growth medium was supplemented with a 10% FBS, antibiotic/antimycotic solution 1 × HyClone™ (GE Healthcare, Chicago, IL, USA), epidermal growth factor (EGF) (20 ng/mL final), hydrocortisone (0.5 μg/mL final) and insulin (10 μg/mL final) (Sigma-Aldrich Chemie, Steinheim, Germany). Cells were cultured in humidified air at 37 °C with atmosphere containing 5% CO2.\n(§5) The half-maximal inhibitory concentration values (IC50) and metabolism inhibition of tested synthetic chalcone derivatives were determined by MTT (3-(4,5-di-methylthiazol-2-yl)2,5-diphenyltetrazolium bromide) colorimetric assay (Sigma-Aldrich Chemie, Steinheim, Germany). Tested cell lines were seeded at a density of 5 × 10^3 cells/well in 96-well culture plates. After 24 h, the tested chalcones in concentrations of 100, 50 and 10 μmol/L were added and incubation proceeded for the next 72 h. In the next step, 10 μL of MTT (5 mg/mL) was added to each well containing cells and incubated for another 4 h at 37 °C during which MTT was metabolized to insoluble formazan in cells. After 4 h, 100 μL of a 10% sodium dodecyl sulphate (SDS) was added to each well and another 24 h were allowed for the formazan crystals to dissolve. The metabolic activity of cells was evaluated by measuring the absorbance at wavelength 540 nm using the automated Cytation™ 3 Cell Imaging Multi-Mode Reader (Biotek, Winooski, VT, USA). Three independent analyses were performed."}, "[6]": {"test_system": "A2058", "test": "MTT assay (metabolic activity)", "description": "as §4, §5"}}}
{"smiles": "COc1cccc(OC)c1C(=O)/C=C/c1c2ccccc2nc2ccccc12", "note": "[Compound 1C, (2E)-3-(acridin-9-yl)-1-(2,6-dimethoxyphenyl)prop-2-en-1-one]", "values": [{"measurement": "Cytochrome c release", "setting": "[1]", "result": "significant release of cytochrome c"}, {"measurement": "Cytochrome c release", "setting": "[2]", "result": "significant release of cytochrome c"}, {"measurement": "Dead An−/PI+", "setting": "[3]; 24 h", "result": "3.41 ± 0.46"}, {"measurement": "Early Apo An+/PI−", "setting": "[3]; 24 h", "result": "7.53 ± 1.17"}, {"measurement": "Late Apo An+/PI+", "setting": "[3]; 24 h", "result": "4.22 ± 0.47"}, {"measurement": "Live An−/PI−", "setting": "[3]; 24 h", "result": "84.80 ± 0.24"}, {"measurement": "Dead An−/PI+", "setting": "[3]; 48 h", "result": "5.94 ± 0.52"}, {"measurement": "Early Apo An+/PI−", "setting": "[3]; 48 h", "result": "11.52 ± 0.42"}, {"measurement": "Late Apo An+/PI+", "setting": "[3]; 48 h", "result": "13.85 ± 2.57"}, {"measurement": "Live An−/PI−", "setting": "[3]; 48 h", "result": "68.70 ± 1.63"}, {"measurement": "Dead An−/PI+", "setting": "[3]; 72 h", "result": "11.65 ± 1.43"}, {"measurement": "Early Apo An+/PI−", "setting": "[3]; 72 h", "result": "13.30 ± 1.71"}, {"measurement": "Late Apo An+/PI+", "setting": "[3]; 72 h", "result": "23.05 ± 4.94"}, {"measurement": "Live An−/PI−", "setting": "[3]; 72 h", "result": "52.00 ± 5.23"}, {"measurement": "Dead An−/PI+", "setting": "[4]; 24 h", "result": "6.25 ± 0.20"}, {"measurement": "Early Apo An+/PI−", "setting": "[4]; 24 h", "result": "12.96 ± 0.77"}, {"measurement": "Late Apo An+/PI+", "setting": "[4]; 24 h", "result": "6.90 ± 0.09"}, {"measurement": "Live An−/PI−", "setting": "[4]; 24 h", "result": "73.90 ± 0.49"}, {"measurement": "Dead An−/PI+", "setting": "[4]; 48 h", "result": "5.81 ± 0.86"}, {"measurement": "Early Apo An+/PI−", "setting": "[4]; 48 h", "result": "20.25 ± 1.27"}, {"measurement": "Late Apo An+/PI+", "setting": "[4]; 48 h", "result": "12.40 ± 0.49"}, {"measurement": "Live An−/PI−", "setting": "[4]; 48 h", "result": "61.50 ± 2.61"}, {"measurement": "Dead An−/PI+", "setting": "[4]; 72 h", "result": "5.90 ± 1.47"}, {"measurement": "Early Apo An+/PI−", "setting": "[4]; 72 h", "result": "25.95 ± 3.80"}, {"measurement": "Late Apo An+/PI+", "setting": "[4]; 72 h", "result": "28.55 ± 3.23"}, {"measurement": "Live An−/PI−", "setting": "[4]; 72 h", "result": "39.60 ± 0.90"}, {"measurement": "IC50", "setting": "[5]; Homo sapiens, BLM, 72 h incubation", "result": "17.9 ± 0.87", "unit": "µM"}, {"measurement": "Selectivity index, BLM (MTT)", "setting": "[5]; MCF-10A vs BLM, calculated on the basis of MTT results", "result": 2.0}, {"measurement": "IC50", "setting": "[6]; Homo sapiens, A2058, 72 h incubation", "result": "7.96 ± 0.38", "unit": "µM"}, {"measurement": "Selectivity index, A2058 (MTT)", "setting": "[6]; MCF-10A vs A2058, calculated on the basis of MTT results", "result": 4.6}]}
